Assay results from the supplement of paper PMC10627819.

Tests used:
[1] = system: S. aureus DSM 20231; assay: fitness (endpoint OD595 vs no drug) (fraction); higher = more growth
In short: (§1)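 Cultures at OD595 0.01 were dispensed into 384-well plates in TSB, LB Lennox or CY and incubated at 37 °C. Every 30 min for 14 h, OD595 was read and corrected by the first reading. Fitness is the optical density at entry into stationary phase relative to the robust mean of no-drug control wells, capped at 1.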

[2] = system: S. aureus Newman; assay: as above
In short: as §1

[3] = system: S. pneumoniae D39V; assay: as above
In short: as §1

[4] = system: B. subtilis 168; assay: Bliss interaction score (quartile over a dose matrix) (fitness difference); higher = more antagonism (negative = synergy)
In short: (§2)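 Quartiles of the Bliss score were taken over technical, biological and donor/recipient replicates. That score is observed fitness minus the product of the single-drug fitness values, which were inferred from combination data. Fitness itself is OD595 at entry into stationary phase divided by the plate's robust no-drug mean, with a cap at 1.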

[5] = system: S. aureus DSM 20231; assay: as above
In short: as §2

[6] = system: S. aureus Newman; assay: as above
In short: as §2

[7] = system: S. pneumoniae D39V; assay: as above
In short: as §2
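Wherever Bliss interaction score (quartile over a dose matrix) is given: first quartile when negative (synergy) and third quartile when positive (antagonism).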

CO/N=C(\C(=O)N[C@@H]1C(=O)N2C(C(=O)[O-])=C(C[N+]3(C)CCCC3)CS[C@H]12)c1csc(N)n1 [Cefepime] + CCN(CC)CCOC(=O)c1ccc(N)cc1 [Procaine]
fitness
Conditions	first compound 0.007 µg/mL	first compound 0.014 µg/mL	first compound 0.028 µg/mL	first compound 0.125 µg/mL	first compound 0.25 µg/mL	first compound 0.5 µg/mL
[1], partner 171 µg/mL	–	–	–	0.95	0.896	0.921
[2], partner 85.5 µg/mL	–	–	–	0.913	0.855	0.801
[2], partner 171 µg/mL	–	–	–	0.879	0.874	0.699
[2], partner 342 µg/mL	–	–	–	0.906	0.833	0.77
[3], partner 85.5 µg/mL	≥ 1	≥ 1	0.974	–	–	–
[3], partner 171 µg/mL	≥ 1	≥ 1	0.948	–	–	–
[3], partner 342 µg/mL	≥ 1	0.999	0.955	–	–	–

fitness, [3], one replicate
Conditions	first compound 0.0078 µg/mL	first compound 0.0155 µg/mL	first compound 0.031 µg/mL
partner 85.5 µg/mL	≥ 1	0.943	0.244
partner 171 µg/mL	≥ 1	≥ 1	0.481
partner 342 µg/mL	≥ 1	≥ 1	0.635

Conditions	Bliss interaction score
[4]	0.0389
[5]	-0.0573
[6]	-0.0735
[7]	0.0421

CO/N=C(\C(=O)N[C@@H]1C(=O)N2C(C(=O)[O-])=C(C[N+]3(C)CCCC3)CS[C@H]12)c1csc(N)n1 [Cefepime] + CN1C2=CC=CC=C2N=C3C1=CC=CC3=O [Pyocyanin]
Conditions	fitness
[1], first compound 0.125 µg/mL, partner 1.25 µg/mL	0.854
[1], first compound 0.125 µg/mL, partner 2.5 µg/mL	0.846
[1], first compound 0.125 µg/mL, partner 5 µg/mL	0.639
[1], first compound 0.25 µg/mL, partner 1.25 µg/mL	0.837
[1], first compound 0.25 µg/mL, partner 2.5 µg/mL	0.831
[1], first compound 0.25 µg/mL, partner 5 µg/mL	0.564
[1], first compound 0.5 µg/mL, partner 1.25 µg/mL	0.786
[1], first compound 0.5 µg/mL, partner 5 µg/mL	0.571
[2], first compound 0.125 µg/mL, partner 1.25 µg/mL	0.85
[2], first compound 0.125 µg/mL, partner 2.5 µg/mL	0.819
[2], first compound 0.125 µg/mL, partner 5 µg/mL	0.56
[2], first compound 0.25 µg/mL, partner 1.25 µg/mL	0.804
[2], first compound 0.25 µg/mL, partner 2.5 µg/mL	0.783
[2], first compound 0.25 µg/mL, partner 5 µg/mL	0.508
[2], first compound 0.5 µg/mL, partner 1.25 µg/mL	0.748
[2], first compound 0.5 µg/mL, partner 2.5 µg/mL	0.702
[2], first compound 0.5 µg/mL, partner 5 µg/mL	0.535
[3], first compound 0.007 µg/mL, partner 0.325 µg/mL	≥ 1
[3], first compound 0.007 µg/mL, partner 0.65 µg/mL	≥ 1
[3], first compound 0.007 µg/mL, partner 1.3 µg/mL	0.963
[3], first compound 0.014 µg/mL, partner 0.325 µg/mL	≥ 1
[3], first compound 0.014 µg/mL, partner 0.65 µg/mL	0.997
[3], first compound 0.014 µg/mL, partner 1.3 µg/mL	0.961
[3], first compound 0.028 µg/mL, partner 0.325 µg/mL	0.946
[3], first compound 0.028 µg/mL, partner 0.65 µg/mL	0.974
[3], first compound 0.028 µg/mL, partner 1.3 µg/mL	0.943

fitness, [3], one replicate
Conditions	first compound 0.0078 µg/mL	first compound 0.0155 µg/mL	first compound 0.031 µg/mL
partner 0.325 µg/mL	≥ 1	≥ 1	0.786
partner 0.65 µg/mL	≥ 1	≥ 1	0.907

Conditions	Bliss interaction score
[4]	0.0781
[5]	-0.078
[6]	0.0752
[7]	0.126
